Data from the NIST ThermoML archive (doi:10.1021/je100734t).
± gives the expanded uncertainty stated by the source.

Experiment: xn = mol fraction of the nth substance listed
Settings: 101 kPa, Liquid; for speed of sound: Pulse-echo method

CCCCCCCCCO [nonan-1-ol] + Cc1cccc(C)c1
Settings | mass density, 293.15 K [kg/m3] | mass density, 303.15 K [kg/m3] | mass density, 313.15 K [kg/m3] | speed of sound, 293.15 K [m/s] | speed of sound, 303.15 K [m/s] | speed of sound, 313.15 K [m/s]
x2 = 0 | 827.7 ± 0.43 | 820.82 ± 0.44 | 813.88 ± 0.45 | 1381 ± 2 | 1347 ± 2 | 1314 ± 2
x2 = 0.066 | 829.52 ± 0.43 | 822.53 ± 0.44 | 815.47 ± 0.45 | 1378 ± 2 | 1343 ± 2 | 1310 ± 2
x2 = 0.127 | 831.23 ± 0.43 | 824.14 ± 0.44 | 816.98 ± 0.45 | 1375 ± 2 | 1340 ± 2 | 1306 ± 2
x2 = 0.1739 | 832.57 ± 0.43 | 825.39 ± 0.44 | 818.16 ± 0.45 | 1373 ± 2 | 1337 ± 2 | 1302 ± 2
x2 = 0.2461 | 834.67 ± 0.44 | 827.36 ± 0.45 | 820.01 ± 0.46 | 1368 ± 2 | 1332 ± 2 | 1297 ± 2
x2 = 0.2913 | 836.03 ± 0.44 | 828.63 ± 0.45 | 821.21 ± 0.46 | 1365 ± 2 | 1328 ± 2 | 1293 ± 2
x2 = 0.3635 | 838.25 ± 0.44 | 830.72 ± 0.45 | 823.17 ± 0.46 | 1361 ± 2 | 1323 ± 2 | 1287 ± 2
x2 = 0.4422 | 840.77 ± 0.45 | 833.1 ± 0.46 | 825.42 ± 0.47 | 1355 ± 2 | 1317 ± 2 | 1281 ± 2
x2 = 0.4872 | 842.27 ± 0.45 | 834.52 ± 0.46 | 826.76 ± 0.47 | 1353 ± 2 | 1314 ± 2 | 1277 ± 2
x2 = 0.5648 | 844.95 ± 0.45 | 837.08 ± 0.46 | 829.18 ± 0.48 | 1348 ± 2 | 1309 ± 2 | 1272 ± 2
x2 = 0.6251 | 847.15 ± 0.46 | 839.19 ± 0.47 | 831.18 ± 0.48 | 1345 ± 2 | 1305 ± 2 | 1268 ± 2
x2 = 0.6873 | 849.54 ± 0.46 | 841.47 ± 0.47 | 833.35 ± 0.48 | 1342 ± 2 | 1302 ± 2 | 1264 ± 2
x2 = 0.7713 | 853 ± 0.47 | 844.78 ± 0.48 | 836.5 ± 0.49 | 1339 ± 2 | 1299 ± 2 | 1260 ± 2
x2 = 0.8507 | 856.56 ± 0.47 | 848.19 ± 0.48 | 839.76 ± 0.5 | 1338 ± 2 | 1298 ± 2 | 1258 ± 2
x2 = 0.9284 | 860.34 ± 0.48 | 851.84 ± 0.49 | 843.28 ± 0.5 | 1339 ± 2 | 1298 ± 2 | 1257 ± 2

CCCCCCCCCO [nonan-1-ol] + Cc1ccc(C)cc1
Settings | mass density, 293.15 K [kg/m3] | mass density, 303.15 K [kg/m3] | mass density, 313.15 K [kg/m3] | speed of sound, 293.15 K [m/s] | speed of sound, 303.15 K [m/s] | speed of sound, 313.15 K [m/s]
x2 = 0 | 827.7 ± 0.43 | 820.82 ± 0.44 | 813.88 ± 0.45 | 1381 ± 2 | 1347 ± 2 | 1314 ± 2
x2 = 0.0611 | 829.31 ± 0.43 | 822.32 ± 0.44 | 815.27 ± 0.45 | 1378 ± 2 | 1343 ± 2 | 1310 ± 2
x2 = 0.1108 | 830.62 ± 0.43 | 823.55 ± 0.44 | 816.41 ± 0.45 | 1375 ± 2 | 1340 ± 2 | 1306 ± 2
x2 = 0.1652 | 832.08 ± 0.43 | 824.91 ± 0.44 | 817.67 ± 0.46 | 1372 ± 2 | 1336 ± 2 | 1301 ± 2
x2 = 0.226 | 833.72 ± 0.44 | 826.44 ± 0.45 | 819.1 ± 0.46 | 1368 ± 2 | 1331 ± 2 | 1296 ± 2
x2 = 0.2932 | 835.56 ± 0.44 | 828.16 ± 0.45 | 820.7 ± 0.46 | 1363 ± 2 | 1326 ± 2 | 1290 ± 2
x2 = 0.3651 | 837.59 ± 0.44 | 830.07 ± 0.45 | 822.47 ± 0.46 | 1357 ± 2 | 1320 ± 2 | 1284 ± 2
x2 = 0.4248 | 839.34 ± 0.45 | 831.7 ± 0.46 | 824 ± 0.47 | 1353 ± 2 | 1315 ± 2 | 1278 ± 2
x2 = 0.5023 | 841.69 ± 0.45 | 833.91 ± 0.46 | 826.07 ± 0.47 | 1347 ± 2 | 1308 ± 2 | 1272 ± 2
x2 = 0.558 | 843.46 ± 0.46 | 835.58 ± 0.47 | 827.63 ± 0.48 | 1343 ± 2 | 1304 ± 2 | 1267 ± 2
x2 = 0.6359 | 846.06 ± 0.46 | 838.04 ± 0.47 | 829.95 ± 0.48 | 1338 ± 2 | 1299 ± 2 | 1261 ± 2
x2 = 0.7123 | 848.77 ± 0.47 | 840.61 ± 0.48 | 832.39 ± 0.49 | 1334 ± 2 | 1294 ± 2 | 1256 ± 2
x2 = 0.7744 | 851.12 ± 0.47 | 842.84 ± 0.48 | 834.5 ± 0.49 | 1332 ± 2 | 1291 ± 2 | 1252 ± 2
x2 = 0.8514 | 854.23 ± 0.48 | 845.81 ± 0.49 | 837.33 ± 0.5 | 1330 ± 2 | 1289 ± 2 | 1249 ± 2
x2 = 0.9286 | 857.59 ± 0.48 | 849.02 ± 0.49 | 840.41 ± 0.5 | 1329 ± 2 | 1288 ± 2 | 1248 ± 2
